According to US20250163059A1, “HETEROCYCLIC KINASE INHIBITORS” (Incyte Corporation, priority 2023, published 2025):

Assays:
[1] = molecular target: T1, catalytic domain (JH1) of JAK2 protein (Homo sapiens, UniProt O60674); experiment: JAK2 (JH1) Enzymatic Assay at ATP=Km (30 μM), TR-FRET; type: biochemical; conditions: 30 μM ATP (=Km), 60 min at 25° C., read-out: V617F ENZ 30 μM
T1 construct: phosphorylated on the tyrosine residue by catalytic domain (JH1) of JAK2 protein; purchased BPS 40450
Experimental: Example A. JAK2 (JH1) Enzymatic Assay at ATP=Km (30 μM)
Inhibitor potency was determined in TR-FRET assay, which measures HTRF signal generated as a result of Eu-labeled anti-phosphotyrosine antibody binding to Biotin-labeled peptide, phosphorylated on the tyrosine residue by catalytic domain (JH1) of JAK2 protein in the presence of ATP-Mg and Allophycocyanin-streptavidin (APC-SA). JH1 domain of JAK2 protein was purchased from BPS (#40450), Eu-W1204-labeled Anti-Phosphotyrosine Antibody (PY-20) and SureLight Allophycocyanin-streptavidin were purchased from PerkinElmer (#AD0067 and #AD0201). Peptide Biot-EQEDEPEGDYFEWLEES-amide (SEQ ID NO.: 1) was purchased from Quality Controlled Biochemicals, MA (Q307-166). Assay buffer consisted of 50 mM Tris, pH=7.5, 10 mM MgCl2, 0.01% Brij-35, 0.1% BSA, 1 mM EGTA, 5% Glycerol and 5 mM DTT. To assess the inhibition of the enzymatic activity, compound was serially diluted in DMSO and a volume of 0.1 μL was transferred to the wells of a black regular volume 384-well plate (Greiner #781076) using Echo Liquid Handler (Labcyte Inc.). Positive and Negative control wells contained 0.1 μL of DMSO.
Enzyme (catalytic domain JH1 of JAK2) was diluted in assay buffer, and the Multidrop Combi liquid handler (Thermo Scientific) was used to dispense 10 μL to each well (except positive control wells, to which 10 μL of assay buffer were dispensed instead of protein).
Plate was centrifuged and reaction was started by addition of 10 μL of substrate solution containing biotinylated peptide and ATP to all wells. Plate was again centrifuged and enzymatic reaction was allowed to proceed for 60 min. at 25° C. Final concentrations in the assay were as follows: 0.02 nM protein, 30 uM ATP, 0.5 uM biotinylated peptide. Reaction was stopped by addition of 10 μL of solution, containing 45 mM EDTA, 144 nM APC/225 nM Streptavidin, and 4.5 nM Eu-Ab in detection buffer: 50 mM Tris, pH=7.8, 150 mM NaCl, 0.5 mg/ml BSA.
Plate was centrifuged and incubated for 30 min. at room temperature. HTRF signal was measured on PHERAstar plate reader instrument (BMG Labtech) with excitation at 337 nm and emissions at 620 nm and 665 nm. Data analysis tools integrated in Genedata Screener software were used to analyze the results. Raw data was normalized to percent of vehicle (DMSO) Negative control, after subtracting no-enzyme Positive inhibitor control. The IC50 values were derived by fitting the data to a four parameter logistic equation producing a sigmoidal dose-response curve using the following equation: Y=Bottom+(Top−Bottom)/(1+10^((Log IC50−X)*Hill slope)) where X is the logarithm of inhibitor concentration and Y is the response.

[2] = molecular target: T2, pseudo-kinase domain (JH2) of human V617F mutant JAK2 (Homo sapiens, UniProt O60674, F794H/V617F/W659A/W777A); experiment: JAK2 LanthaScreen JH2-V617F Binding Assay; conditions: 50 nM Fluorescent JAK2-JH2 Tracer, 1 hour at 25° C., read-out: JH2 BIND V617F
T2 construct: pseudo-kinase domain (JH2, amino-acids 536-812 with 3 surface mutations W659A, W777A, F794H); purchased BPS Bioscience 79498; host or cells: baculovirus expression system
T2 sequence (O60674 536-812 V617F/W659A/W777A/F794H): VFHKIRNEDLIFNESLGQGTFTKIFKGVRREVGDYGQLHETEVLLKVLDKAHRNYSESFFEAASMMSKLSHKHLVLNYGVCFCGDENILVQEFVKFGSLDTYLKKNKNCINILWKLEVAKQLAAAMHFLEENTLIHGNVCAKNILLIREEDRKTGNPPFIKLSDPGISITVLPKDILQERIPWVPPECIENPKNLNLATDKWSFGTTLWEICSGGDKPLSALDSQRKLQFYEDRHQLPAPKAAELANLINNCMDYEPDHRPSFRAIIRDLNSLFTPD
Experimental: Example B. JAK2 LanthaScreen JH2-V617F Binding Assay
JAK2 JH2-V617F binding assay utilizes pseudo-kinase domain (JH2, amino-acids 536-812 with 3 surface mutations W659A, W777A, F794H) of human V617F mutant JAK2 expressed as C-terminal His-Avi-tagged, biotinylated protein in a baculovirus expression system (BPS Bioscience, Catalog #79498). The assay was conducted in black 384-well polystyrene plates in a final reaction volume of 20 μL. JAK2 JH2-V617F (0.26 nM) was incubated with compounds (100 nL serially diluted in DMSO) in the presence of 50 nM Fluorescent JAK2-JH2 Tracer (MedChem Express Catalog #HY-102055) and 0.25 nM Streptavidin-Tb cryptate (Cisbio Part #610SATLB) in assay buffer (50 mM Tris, pH=7.5, 10 mM MgCl2, 0.01% Brij-35, 0.1% BSA, 1 mM EGTA, 5% Glycerol and 5 mM DTT). Non-specific binding was accessed in the presence of 2 mM ATP. After incubation for 1 hour at 25° C., LanthaScreen signals were read on a PHERAstar FS plate reader (BMG LABTECH). Data was analyzed with IDBS XLfit and GraphPad Prism 5.0 software using a four parameter dose response curve to determine IC50 for each compound.

T1 sequence (O60674 849-1124 limits assumed): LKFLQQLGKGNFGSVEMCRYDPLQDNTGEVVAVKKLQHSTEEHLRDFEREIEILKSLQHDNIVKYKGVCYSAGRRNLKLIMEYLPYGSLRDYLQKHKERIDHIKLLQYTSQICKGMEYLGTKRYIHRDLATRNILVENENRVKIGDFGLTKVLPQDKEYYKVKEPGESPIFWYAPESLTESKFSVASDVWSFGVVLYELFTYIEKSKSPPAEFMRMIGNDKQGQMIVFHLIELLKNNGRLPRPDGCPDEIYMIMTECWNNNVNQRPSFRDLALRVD

| Compound | IC50 [1] [µM] | IC50 [2] [µM] |
| --- | --- | --- |
| COc1c(-c2cnn(C3CN(Cc4cccc(C(=O)N(C)C)n4)C3)c2)cccc1-c1cnc(N)c2cnc(NC(=O)C3CC3)cc12 [Example 16, 6-((3-(4-(3-(1-Amino-6-(cyclopropanecarboxamido)-2,7-naphthyridin-4-yl)-2-methoxyphenyl)-1H-pyrazol-1-yl)azetidin-1-yl)methyl)-N,N-dimethylpicolinamide] | 0.01 to 0.1 | ≤ 0.01 |
| CNc1ncc(-c2cccc(-c3cnn(C(C)C(=O)O)c3)c2OC)c2cc(NC(=O)C3CC3)ncc12 (stereo not drawn) [Example 10, 2-(4-(3-(6-(Cyclopropanecarboxamido)-1-(methylamino)-2,7-naphthyridin-4-yl)-2-methoxyphenyl)-1H-pyrazol-1-yl)propanoic acid] | > 1 | 0.01 to 0.1 |
| CNc1ncc(-c2cccc(-c3cnn(C4CN(Cc5cccc(C(=O)N(C)CC6CC6)n5)C4)c3)c2OC)c2cc(NC(=O)C3CC3)nnc12 [Example 13, 6-((3-(4-(3-(3-(Cyclopropane-carboxamido)-8-(methylamino)pyrido[3,4-c]pyridazin-5-yl)-2-methoxy-phenyl)-1H-pyrazol-1-yl)azetidin-1-yl)methyl)-N-(cyclopropyl-methyl)-N-methyl-picolinamide] | > 1 | ≤ 0.01 |
| CNc1ncc(-c2cccc(-c3cnn(C4CN(Cc5cccc(C(=O)N6CCCC6)n5)C4)c3)c2OC)c2cc(NC(=O)C3CC3)nnc12 [Example 15, N-(5-(2-Methoxy-3-(1-(1-((6-(pyrrolidine-1-carbonyl)pyridin-2-yl)methyl)azetidin-3-yl)-1H-pyrazol-4-yl)phenyl)-8-(methylamino)pyrido[3,4-c]pyridazin-3-yl)cyclopropane-carboxamide] | > 1 | ≤ 0.01 |
| CNc1ncc(-c2cccc(-c3cnn(C4CN(Cc5cccc(C(=O)N(C)CC(F)(F)F)n5)C4)c3)c2OC)c2cc(NC(=O)C3CC3)nnc12 [Example 14, 6-((3-(4-(3-(3-(Cyclopropane-carboxamido)-8-(methylamino)pyrido[3,4-c]pyridazin-5-yl)-2-methoxy-phenyl)-1H-pyrazol-1-yl)azetidin-1-yl)methyl)-N-methyl-N-(2,2,2-trifluoroethyl) picolinamide] | > 1 | ≤ 0.01 |
| CNc1ncc(-c2cccc(-c3cnn(C4CN(Cc5cccc(C(=O)N(C)C6CC6)n5)C4)c3)c2OC)c2cc(NC(=O)C3CC3)ncc12 [Example 2, 6-((3-(4-(3-(6-(Cyclopropane-carboxamido)-1-(methylamino)-2,7-naphthyridin-4-yl)-2-methoxyphenyl)-1H-pyrazol-1-yl)azetidin-1-yl)methyl)-N-cyclopropyl-N-methyl-picolinamide] | > 1 | ≤ 0.01 |
| CNc1ncc(-c2cccc(-c3ccc(C(=O)N(C)Cc4ccccn4)nc3)c2OC)c2cc(NC(=O)C3CC3)ncc12 [Example 23, 5-(3-(6-(Cyclopropanecarboxamido)-1-(methylamino)-2,7-naphthyridin-4-yl)-2-methoxyphenyl)-N-methyl-N-(pyridin-2-ylmethyl)picolinamide] | > 1 | 0.01 to 0.1 |
| COc1c(-c2cnn(C3CN(Cc4cccc(C(=O)N5CCC(F)(F)C5)n4)C3)c2)cccc1-c1cnc(N)c2cnc(NC(=O)C3CC3)cc12 [Example 19, N-(8-amino-5-(3-(1-(1-((6-(3,3-difluoro-pyrrolidine-1-carbonyl)pyridin-2-yl)methyl)azetidin-3-yl)-1H-pyrazol-4-yl)-2-methoxy-phenyl)-2,7-naphthyridin-3-yl)cyclopropane-carboxamide] | 0.01 to 0.1 | ≤ 0.01 |
| CNc1ncc(-c2cccc(-c3cnn(C4CN(Cc5cccc(C(F)F)n5)C4)c3)c2OC)c2cc(NC(=O)C3CC3)ncc12 [Example 7, N-(5-(3-(1-(1-((6-(Difluoromethyl)pyridin-2-yl)methyl)azetidin-3-yl)-1H-pyrazol-4-yl)-2-methoxyphenyl)-8-(methylamino)-2,7-naphthyridin-3-yl)cyclopropanecarboxamide] | > 1 | ≤ 0.01 |
